Experimental data: the supplement of paper PMC5908809

Legend:
Experiment in all cases: relative IC50 (inflection point of fitted viability curve, relative to fitted max inhibition); higher = less sensitive
Conditions in all cases: 72 h
DERL-7 (IL-2 2.5 ng/mL) = test system: DERL-7 (IL-2 2.5 ng/mL)
Description: (§1)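 Drug sensitivity and resistance testing: 5 concentrations over a 10,000-fold range, 72 h at 37 °C, viability by CellTiter-Glo normalised to DMSO and benzethonium chloride controls. IC50 is the inflection point of a logistic fit (min fixed at 0, max fitted), so it is relative to the fitted maximal inhibition. Kept only where fitted max inhibition is at least 50%.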

IMC-1 (IL-2 20 ng/mL) = test system: IMC-1 (IL-2 20 ng/mL)
Description: as §1

YT (IL-2 2.5 ng/mL) = test system: YT (IL-2 2.5 ng/mL)
Description: as §1

NKL (IL-2 2.5 ng/mL) = test system: NKL (IL-2 2.5 ng/mL)
Description: as §1

KHYG-1 (IL-2 2.5 ng/mL) = test system: KHYG-1 (IL-2 2.5 ng/mL)
Description: as §1

[1] = test system: normal primary NK cells, pool 3 (3 donors) (IL-2 2.5 ng/mL)
Description: as §1

KAI3 (IL-2 2.5 ng/mL) = test system: KAI3 (IL-2 2.5 ng/mL)
Description: as §1

NK-YS (IL-2 2.5 ng/mL) = test system: NK-YS (IL-2 2.5 ng/mL)
Description: as §1

NK-92 (IL-2 2.5 ng/mL) = test system: NK-92 (IL-2 2.5 ng/mL)
Description: as §1

SNK-6 (IL-2 2.5 ng/mL) = test system: SNK-6 (IL-2 2.5 ng/mL)
Description: as §1

[2] = test system: normal primary NK cells, pool 1 (3 donors), resting (IL-2 0 ng/mL)
Description: as §1

[3] = test system: normal primary NK cells, pool 1 (3 donors) (IL-2 2.5 ng/mL)
Description: as §1

Row | Compound | relative IC50 (DERL-7 (IL-2 2.5 ng/mL)) [nM] | relative IC50 (IMC-1 (IL-2 20 ng/mL)) [nM] | relative IC50 (YT (IL-2 2.5 ng/mL)) [nM] | relative IC50 (NKL (IL-2 2.5 ng/mL)) [nM] | relative IC50 (KHYG-1 (IL-2 2.5 ng/mL)) [nM] | relative IC50 [1] [nM] | relative IC50 (KAI3 (IL-2 2.5 ng/mL)) [nM] | relative IC50 (NK-YS (IL-2 2.5 ng/mL)) [nM] | relative IC50 (NK-92 (IL-2 2.5 ng/mL)) [nM] | relative IC50 (SNK-6 (IL-2 2.5 ng/mL)) [nM] | relative IC50 [2] [nM] | relative IC50 [3] [nM]
1 | N#CC(c1ccnc(OCc2ccc(CN3CCOCC3)cc2)n1)c1nc2ccccc2s1 (stereo not drawn) [Bentamapimod] | 1440 | 2230 | 1590 | 1810 | 1690 |  |  |  |  |  |  | 
2 | CC(=O)N(O)CCCCCNC(=O)CCC(=O)N(O)CCCCCNC(=O)CCC(=O)N(O)CCCCCN [Deferoxamine] |  | 3210 |  |  |  | 1580 |  |  |  |  |  | 
3 | CNC(=O)c1ccc(N2C(=S)N(c3ccc(C#N)c(C(F)(F)F)c3)C(=O)C2(C)C)cc1F [Enzalutamide] | > 10000 |  |  |  |  | > 10000 | > 10000 |  |  |  |  | 
4 | O=c1[nH]c(=O)n([C@H]2C[C@H](O)[C@@H](CO)O2)cc1F [Floxuridine] | 31 | 128 | 286 | 75.2 | 8.42 | > 10000 | 10.1 | 28.9 | 19.5 | 68.6 |  | 
5 | CCCOc1ccn2c(C(C)=O)cc(-c3ccccc3S(C)(=O)=O)c2c1 [GSK2801] |  | > 10000 |  |  |  |  |  |  |  |  |  | 
6 | COc1cc2ncnc(Nc3ccc(F)c(Cl)c3)c2cc1OCCCN1CCOCC1 [Gefitinib] | 3010 |  | 2390 | 1770 | 2270 |  | 1710 |  | 2660 |  | 3700 | 
7 | O=C(O)c1ccc(O)c2ncccc12 [IOX-1] | 21600 | 37400 | 32700 | 29100 | 28400 |  | 17000 | 32200 | 26400 | 20200 |  | 
8 | O=C(Nc1ccncc1)C(=O)c1cn(Cc2ccc(Cl)cc2)c2ccccc12 [Indibulin] | 922 | 339 | 131 | 85.6 | 103 |  | 45 | 77.7 | 48.5 | 2.97 |  | > 10000
9 | NC(=O)c1ccc(I)c([N+](=O)[O-])c1 [Iniparib] |  |  |  |  |  |  |  |  |  |  | 1360 | 1620
10 | CCc1c2c(nc3ccc(OC(=O)N4CCC(N5CCCCC5)CC4)cc13)-c1cc3c(c(=O)n1C2)COC(=O)[C@]3(O)CC [Irinotecan] | 597 | 347 | 577 | 73 | 152 |  | 146 | 282 | 140 | 260 |  | 
11 | O=C(c1ccc(/C=C/c2n[nH]c3ccccc23)cc1)N1CCNCC1 [KW-2449] | 920 | > 2500 |  |  | 807 | > 2500 |  |  |  | 687 |  | 
12 | CNC(=O)c1cccc2cc(Oc3ccnc4cc(OCC5(N)CC5)c(OC)cc34)ccc12 [Lucitanib] |  |  | 3440 |  | 2000 |  |  | 2000 | 1910 | 3720 |  | 
